Here are results for one molecule from patent US9642839B2, “Substance having tyrosine kinase inhibitory activity and preparation method and use thereof” (Institute of Radiation Medicine, China Academy of Military …, priority 2013, dated 2017).

Data set [1] has as its system MHCC97-L cells. Particulars: MHCC97-L s.c. nude mice; 16 mg/kg intraperitoneal, once every 24 h, 6 administrations; by tumor weight. The protocol: (§1) Establishment of tumor-bearing models: Tumor cells were cultured in T75 flasks until achieving a logarithmical growth. The cells were trypsinized and DMEM medium containing 10% fetal bovine serum was added to terminate trypsinization. The cells were washed with PBS twice, and suspended. Cell concentration was adjusted to 5×10^7 cells/ml, and 150 μl cell suspension was injected into the right flank of the mice. After inoculation, the tumors in the nude mice were observed every day, and the mice were grouped when the tumors reached a volume of 100 mm^3. Each nude mouse was numbered, and the tumor size was measured. The data was entered into EXCEL for sorting and thus excluding extreme values. Random numbers were generated corresponding to the number of the mice, and the mice were randomly grouped using these random numbers.
(§2) Administration: intraperitoneal injection was used at doses of 4 mg/kg, 8 mg/kg, and 16 mg/kg, respectively. The vehicle control group was injected with the same volume of DMSO. The mice received treatment once every 24 h, and a total of 6 times of administrations were given. During administration, changes of tumor size (length×width×width/2) were monitored and recorded in a real-time manner, and the results were expressed as mean±standard deviation.

Data set [2] deals with MHCC97-H cells. As to conditions: MHCC97-H s.c. nude mice; 16 mg/kg intraperitoneal, once every 24 h, 6 administrations; by tumor weight. How it is done: as §1, §2
The subject of data set [3] is protein tyrosine kinase (PTK). Briefly: PTK activity assay with mouse brain tissue extract (ELISA, OD 492 nm). Type of data set: biochemical. Particulars: at 400 μM. The protocol: Tyrosine kinase buffer: 10 mL 1M HEPES (pH 7.5), 0.4 mL 5% BSA/PBS, 0.2 mL 0.1M Na3VO4, and 1 mL 5M NaCl were added to 88.4 mL double distilled water (DDW) (HEPES: Amresco; Na3VO4: Sigma).
Extraction of tissue extract PTK: mouse brain tissue was quickly removed and weighed, followed by addition of five-fold volumes of pre-cooled homogenization buffer for homogenization. After centrifugation at 4° C., 1,000 g for 10 min, nuclei and cell debris were removed. The supernatant S1 was collected and centrifuged at 4° C., 10,000 g for 20 min, and then the supernatant S2 was collected. The precipitate P2, which represents the crude membrane protein fraction, was retained. S2 included cytoplasmic protein, and was used for testing protein tyrosine kinase (PTK) activity. In the detection of the membrane protein fraction, two-fold volumes of lysis buffer was added to P2, and the resultant was placed on ice for 10 min and centrifuged at 4° C., 10,000 g for 10 min. The supernatant S3, which represents the crude membrane protein including soluble membrane protein, was collected for testing PTK activity. Protein content in cytoplasm or membrane protein was detected by using BCA protein concentration kit (purchased from Beyotime Institute of Biotechnology). The tissue extract was stored at −70° C.
Coating of 96-well plate: PTK substrate was dissolved and added in an amount of 100 μl to each well. The plate was covered with its lid, and incubated at 4° C. overnight (10-12 hours). Then it was washed with 200 μl elution buffer once, and dried at 37° C. for 2 h. After that, it was washed with 10 mM PBS once, dried at room temperature, and then stored at 4° C. for further use.
Groups: blank control: 80 μl 1× tyrosine kinase buffer containing ATP+20 μl 1× tyrosine kinase buffer; negative control: 80 μl 1× tyrosine kinase buffer containing ATP+10 μl 1× tyrosine kinase buffer+7 μl tissue extract+3 μl 1× tyrosine kinase buffer; positive control: 80 μl 1× tyrosine kinase buffer containing ATP+10 μl Gefitinib+7 μl tissue extract+3 μl 1× tyrosine kinase buffer (first, the positive drug was allowed to interact with the tyrosine kinase tissue extract at room temperature for 10 min, and meanwhile the tissue extract for the negative control group was also placed at room temperature for 10 min, and then 80 μl 1× tyrosine kinase buffer containing ATP was added to respective groups); vehicle control: 80 μl 1× tyrosine kinase buffer containing ATP+10 μl DMSO+7 μl tissue extract+3 μl 1× tyrosine kinase buffer; drugs to be screened: 80 μl 1× tyrosine kinase buffer containing ATP+10 μl drug to be tested +7 μl tissue extract+3 μl 1× tyrosine kinase buffer.
PTK activity assay: 1× tyrosine kinase buffer was prepared by evenly mixing 1 mL (10×) tyrosine kinase buffer with 9 mL DDW. The tissue extract was diluted with 1× tyrosine kinase buffer appropriately, mixed with it gently and evenly, and placed on ice. ATP stock solution was dissolved by evenly mixing 48 μl ATP stock solution with 1 mL 1× tyrosine kinase buffer, and placed on ice. The microplate reader was added in respective wells with the groups formulated as above, covered with the lid, and incubated at room temperature for 30 min. The microplate reader was washed with 200 μl elution buffer and tapped until the residual buffer was removed, and this procedure was repeated for five times. To each well, 100 μl antibody diluent (antibody elution buffer diluted at a ratio of 1:2000) was added. The reader was covered with the lid, and incubated at room temperature for 30 min. OPD solution was prepared by addition of 4 mg OPD into a mixture of 4.86 mL 0.1 mol/L citric acid solution and 5.14 mL 0.2 mol/L Na2HPO4 solution, followed by addition of 50 μl 30% H2O2 to allow for complete dissolution, and then was protected from light. The antibody solution was removed. The reader was washed with 200 μl elution buffer and tapped until the residual buffer was removed, and this procedure was repeated for five times.
For orientation: In an ELISA, binding on a coated surface is turned into a signal by an enzyme label.

Data set [4] has as its system lung cancer cell A549. As to the kind of experiment: Lung orthotopic tumor formation model. Format: in vivo, BALB/c nude mice. As to conditions: for Tumor inhibition rate / Weight of tumor: 6 administrations; for Average weight (X ± S), End: animal weight at end, in g (unit assumed). The protocol: The medium was changed once every 1-2 days. […] The subcultured tumor cells were digested into suspensions under a sterile condition, and orthotopically injected into BALB/c nude mice at the left chest between the third and fourth ribs (3.0×10^6 cells/mouse, 30 μl). The inoculation needle entered into the pulmonary lobe at a depth of about 5 mm. The inoculation day is labeled as DO. Seven days later, animals were weighed and randomized into groups based on body weight.
Method: Animal models were randomized into three groups, vehicle control group (DMSO injected intraperitoneally), intraperitoneal low dose group (18 mg/kg), and intraperitoneal high dose group (36 mg/kg). The animals received treatment once every 24 hours. After 6 times of successive administration, animals were kept for another 30 days. At the end of this experiment, animals were sacrificed, and dissected to obtain lungs. Tumor was dissected and weighed.

The target of data set [5] is TrkA (Homo sapiens, UniProt P04629). As to the kind of experiment: Western blot, NGF-induced TrkA phosphorylation and signaling pathway in SK-N-SH cells. Particulars: 0.05-1.0 μM, 500 ng/mL NGF. Type of data set: cell-based. How it is done: The medium was changed once every 1-2 days. […] 500 ng/mL NGF or 200 ng/ml BDNF (if not added, marked as “-”) were added to stimulate the cells for 5 min. After cell lysis, total protein was extracted. Western blot assay was carried out with TrkA phosphorylated and non-phosphorylated (p-TrkA) antibodies, TrkB phosphorylated and non-phosphorylated (p-TrkB) antibodies, ERK phosphorylated and non-phosphorylated (p-ERK) antibodies, Akt phosphorylated and non-phosphorylated (p-Akt) antibodies, and GAPDH antibody.
A general note: Immunoblotting shows a protein as a band on a membrane.

Where [6] appears, read: intraperitoneal high dose 36 mg/kg.
Setting [7] is: intraperitoneal low dose 18 mg/kg.

Chain of TrkA (P04629 33-796, species assumed): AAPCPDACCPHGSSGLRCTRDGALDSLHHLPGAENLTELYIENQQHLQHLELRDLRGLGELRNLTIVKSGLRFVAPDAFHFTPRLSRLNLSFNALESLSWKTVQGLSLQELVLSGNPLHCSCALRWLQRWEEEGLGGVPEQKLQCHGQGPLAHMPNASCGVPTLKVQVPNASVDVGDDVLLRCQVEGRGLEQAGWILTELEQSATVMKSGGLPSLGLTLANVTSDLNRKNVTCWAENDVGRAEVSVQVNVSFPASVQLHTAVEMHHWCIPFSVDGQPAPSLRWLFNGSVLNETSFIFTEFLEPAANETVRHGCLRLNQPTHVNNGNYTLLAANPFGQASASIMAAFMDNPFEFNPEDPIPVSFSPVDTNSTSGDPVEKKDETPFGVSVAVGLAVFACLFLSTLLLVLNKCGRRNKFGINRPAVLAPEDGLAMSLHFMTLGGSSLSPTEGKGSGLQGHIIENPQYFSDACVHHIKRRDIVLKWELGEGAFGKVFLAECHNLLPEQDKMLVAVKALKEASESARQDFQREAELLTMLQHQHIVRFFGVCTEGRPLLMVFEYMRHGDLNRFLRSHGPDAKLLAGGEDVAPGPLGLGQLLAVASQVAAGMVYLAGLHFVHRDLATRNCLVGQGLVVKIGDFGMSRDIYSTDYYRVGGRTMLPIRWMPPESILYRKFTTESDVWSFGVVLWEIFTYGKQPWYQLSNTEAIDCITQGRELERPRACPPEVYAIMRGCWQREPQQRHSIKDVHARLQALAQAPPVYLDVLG

For the molecule `Cc1ccccc1NS(=O)(=O)c1ccc2c(c1)/C(=C/c1nc3ccccc3[nH]1)C(=O)N2` [Indo 5, 3-(1H-benzimidazol-2-methylene)-5-(2-methylphenylaminosulfo)-2-indolone], the Tumor inhibition rate in data set [1] was determined as 68%; in data set [2] it was 61%; in data set [4] (setting [6]) it was 40.7%; in data set [4] (setting [7]) it was 23.8%. The “Inhibition rate on tyrosine kinase” value in data set [3] was 53.4%. Further, the Weight of tumor is 0.224 ± 0.07 g in data set [4] (setting [6]) and 0.288 ± 0.08 g in data set [4] (setting [7]). For the same molecule, the “Average weight (X ± S), End” value is given as 20.4 ± 0.3 in data set [4] (setting [6]) and 19.5 ± 0.7 in data set [4] (setting [7]). The “Phosphorylation of TrkA and downstream ERK” value in data set [5] is “significantly inhibited”.
